From US20250099442A1, “COMPOUNDS FOR USE IN TREATING NEUROLOGICAL DISORDERS” (Prothena Biosciences Limited, priority 2021, published 2025)

Target: DYRK1A (Homo sapiens (Human), UniProt Q13627)
Assay: DYRK1A Inhibition Assay
Type: biochemical
Settings: Compounds of Formula (I); DYRK1A 1 nM, ATP 20 μM, Ser/Thr 18 peptide 2 μM, 90 minutes; read-out: DYRK1 IC50
Procedure: • DYRK1A—Invitrogen #PV4105 • Ser/Thr 18 peptide—Invitrogen #PR8227U • Phos-Ser/Thr 18 peptide—Invitrogen #PR8229U • Assay plate—PerkinElmer #6007279 • ATP—Sigma #A7699-5G • Development reagent A—Invitrogen #PR5194B • Development buffer—Invitrogen #PR4876B
• 1. Test compounds were diluted to 1 mM in DMSO • 2. Stock was further diluted 3-fold using Echo platform • 3. 100 nL of DMSO into Columns 1 and 24 and 100 nL of compounds dilutions to Columns 2-23 in a plate.
• 1. Add 5 μL enzyme & substrate mixture to each well in Column 2-23 and A24-H24 wells of the 384-well assay plate; • 2. Add 5 μL 0% Phosphorylation control to A1-H1 and I24-P24 wells of the assay plate; • 3. Add 5 μL 100% Phosphorylation control to I1-P1 wells of the assay plate; • 4. Spin the assay plate (1000 rpm, 1 minute @23° C.); • 5. Incubate enzyme with compounds for 15 minutes at 23° C.; • 6. Add 5 μL ATP solution to each well of the assay plate; • 7. Spin the plate (1000 rpm, 1 minute @23° C.); • 8. Incubate the assay plate for 90 minutes at 23° C.; • 9. Add 10 μL Development reagent A to each well of the assay plate; • 10. Centrifuge the plate at 1000 rpm about 15 seconds and seal a film over assay plate. Incubate the assay plate for 30 minutes at 23° C. • 11. Read assay plates on Envision (see Tables A and B).
Final Compound Concentrations […]

IC50: 100 to 1000 nM
SMILES: C(#CC1CCNCC1)c1ccc2c(-c3ccncc3)c[nH]c2n1 [Compound 97]
